The values below come from patent US20050009840A1 (SUGEN, INC., priority 2003, published 2005).

Molecules are shown by their SMILES.

This experiment deals with T1, HGFR (Homo sapiens, UniProt P08581).
T1 construct: purchased Upstate 14-526
T1 sequence (P08581 974-1390 limits assumed): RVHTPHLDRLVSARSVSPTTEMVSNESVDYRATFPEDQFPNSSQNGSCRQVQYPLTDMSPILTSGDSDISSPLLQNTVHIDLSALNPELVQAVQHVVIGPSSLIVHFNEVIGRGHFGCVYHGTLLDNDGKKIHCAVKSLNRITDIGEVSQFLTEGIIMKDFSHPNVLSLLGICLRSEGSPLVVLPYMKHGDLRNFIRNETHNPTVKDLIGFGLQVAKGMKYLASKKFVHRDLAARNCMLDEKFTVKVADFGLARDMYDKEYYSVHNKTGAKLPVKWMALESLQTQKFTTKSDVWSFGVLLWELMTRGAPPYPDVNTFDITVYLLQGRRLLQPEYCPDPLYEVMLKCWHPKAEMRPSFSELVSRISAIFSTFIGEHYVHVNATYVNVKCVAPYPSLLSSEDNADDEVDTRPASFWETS
Nature of the experiment: HGFR continuous-coupled spectrophotometric assay. The note with it: at 1 pM; Table 7, library procedure 42; read-out: % Inhibition (percent c-MET inhibition). It is filed as biochemical.
The inhibition is the percentage by which the read-out fell short of the control. Take `Nc1ncc(-c2ccc(C(=O)N3CCC(N4CCCC4)CC3)cc2)cc1OCc1cccc(F)c1F`: the inhibition at 1 pM was 24%.

Consider `COc1ccc(-c2nc(COc3cc(-c4ccc(C(=O)N5CCC(N6CCCC6)CC5)cc4)cnc3N)no2)cc1`, for which the inhibition at 1 pM came to 10%. The figure for `Nc1ncc(-c2ccc(C(=O)N3CCC(N4CCCC4)CC3)cc2)cc1OCc1ncc(C(F)(F)F)cc1Cl` is 8%. For `Nc1ncc(-c2ccc(C(=O)N3CCC(N4CCCC4)CC3)cc2)cc1OCc1csc2ccc(Cl)cc12` the value was 37%; for `CC(C)(C)c1ccc(-c2noc(COc3cc(-c4ccc(C(=O)N5CCC(N6CCCC6)CC5)cc4)cnc3N)n2)cc1`, 36%; for `Cc1noc(C)c1-c1nc(COc2cc(-c3ccc(C(=O)N4CCC(N5CCCC5)CC4)cc3)cnc2N)no1`, 6%.

As for `COc1ccccc1-c1nc(COc2cc(-c3ccc(C(=O)N4CCC(N5CCCC5)CC4)cc3)cnc2N)no1`, the inhibition at 1 pM was 8%. On to `Nc1ncc(-c2ccc(C(=O)N3CCC(N4CCCC4)CC3)cc2)cc1OCc1cccc(C(=O)NCc2ccncc2)c1`, for which the inhibition at 1 pM was determined as 10%. The figure for `Nc1ncc(-c2ccc(C(=O)N3CCC(N4CCCC4)CC3)cc2)cc1OCc1cccc(C(=O)NCCc2ccccn2)c1` is 12%; for `Nc1ncc(-c2ccc(C(=O)N3CCC(N4CCCC4)CC3)cc2)cc1OCc1cccc(C(=O)NC2CCN(Cc3ccccc3)C2)c1` (stereo not shown) it is 13%; for `Nc1ncc(-c2ccc(C(=O)N3CCC(N4CCCC4)CC3)cc2)cc1OCc1ccc(C(=O)NCCc2ccccn2)cc1` it is 11%. The figure for `Nc1ncc(-c2ccc(C(=O)N3CCC(N4CCCC4)CC3)cc2)cc1OCc1ccc(C(=O)NCCN2CCCC2)cc1` is 10%; for `Nc1ncc(-c2ccc(C(=O)N3CCC(N4CCCC4)CC3)cc2)cc1OCc1ccc(C(=O)NCCCN2CCCC2=O)cc1` it is 11%; for `Nc1ncc(-c2ccc(C(=O)N3CCC(N4CCCC4)CC3)cc2)cc1OCc1cccc(C(=O)NC2CCN(Cc3ccccc3)CC2)c1` it is 13%. For `Nc1ncc(-c2ccc(C(=O)N3CCC(N4CCCC4)CC3)cc2)cc1OCc1ccc(C(=O)NC2CCN(Cc3ccccc3)CC2)cc1` the value was 11%. As for `CCN1CCCC1CNC(=O)c1cccc(COc2cc(-c3ccc(C(=O)N4CCC(N5CCCC5)CC4)cc3)cnc2N)c1` (stereo not shown), the inhibition at 1 pM was determined as 10%. For `CCN1CCCC1CNC(=O)c1ccc(COc2cc(-c3ccc(C(=O)N4CCC(N5CCCC5)CC4)cc3)cnc2N)cc1` (stereo not shown) the value was 18%; for `CN(C)c1ccc(NC(=O)c2cccc(COc3cc(-c4ccc(C(=O)N5CCC(N6CCCC6)CC5)cc4)cnc3N)c2)cc1`, 23%.

In the case of `CCN(CC)c1ccc(NC(=O)c2ccc(COc3cc(-c4ccc(C(=O)N5CCC(N6CCCC6)CC5)cc4)cnc3N)cc2)cc1`, the inhibition at 1 pM turned out to be 47%.

Consider `Nc1ncc(-c2ccc(C(=O)N3CCC(N4CCCC4)CC3)cc2)cc1OCc1ccc(C(=O)NCc2cccnc2)cc1`, for which the inhibition at 1 pM is 15%.

On to `Nc1ncc(-c2ccc(C(=O)N3CCC(N4CCCC4)CC3)cc2)cc1OCc1ccc(C(=O)NC2CCN(Cc3ccccc3)C2)cc1` (stereo not shown), for which the inhibition at 1 pM came out at 24%. For `Nc1ncc(-c2ccc(C(=O)N3CCC(N4CCCC4)CC3)cc2)cc1OCc1cccc(C(=O)Nc2ccc(N3CCCCC3)cc2)c1` the value was 32%; for `CC(C)Oc1cc(C(F)(F)F)nc2ccc(COc3cc(-c4ccc(C(=O)N5CCC(N6CCCC6)CC5)cc4)cnc3N)cc12`, 19%; for `Nc1ncc(-c2ccc(C(=O)N3CCC(N4CCCC4)CC3)cc2)cc1OCc1csc(-c2ccc(C(F)(F)F)cc2)n1`, 21%. The figure for `Nc1ncc(-c2ccc(C(=O)N3CCC(N4CCCC4)CC3)cc2)cc1OCc1ccc2ccccc2c1Br` is 59%; for `CN(C)CCNC(=O)c1cccc(COc2cc(-c3ccc(C(=O)N4CCC(N5CCCC5)CC4)cc3)cnc2N)c1` it is 20%; for `Nc1ncc(-c2ccc(C(=O)N3CCC(N4CCCC4)CC3)cc2)cc1OCc1cc(C(F)(F)F)ccc1Cl` it is 26%. For `Nc1ncc(-c2ccc(C(=O)N3CCC(N4CCCC4)CC3)cc2)cc1OCc1cc(F)ccc1C(F)(F)F` the value was 26%; for `Nc1ncc(-c2ccc(C(=O)N3CCC(N4CCCC4)CC3)cc2)cc1OCc1ccccc1OC(F)(F)F`, 21%. With `CCOC(=O)C1CCN(C(=O)c2ccc(COc3cc(-c4ccc(C(=O)N5CCC(N6CCCC6)CC5)cc4)cnc3N)cc2)CC1`, the inhibition at 1 pM came to 16%. For `CCOC(=O)CCNC(=O)c1cccc(COc2cc(-c3ccc(C(=O)N4CCC(N5CCCC5)CC4)cc3)cnc2N)c1` the value was 14%. The figure for `COC(=O)c1ccc(COc2cc(-c3ccc(C(=O)N4CCC(N5CCCC5)CC4)cc3)cnc2N)c(OC)c1` is 15%. On to `Nc1ncc(-c2ccc(C(=O)N3CCC(N4CCCC4)CC3)cc2)cc1OCc1ccc(S(=O)(=O)Nc2ccc(F)cc2)cc1`, for which the inhibition at 1 pM was 15%. On to `Nc1ncc(-c2ccc(C(=O)N3CCC(N4CCCC4)CC3)cc2)cc1OCc1ccc(-c2ccnc(Br)n2)cc1`, for which the inhibition at 1 pM was 17%. With `Nc1ncc(-c2ccc(C(=O)N3CCC(N4CCCC4)CC3)cc2)cc1OCc1cscn1`, the inhibition at 1 pM turned out to be 12%.

On to `Nc1ncc(-c2ccc(C(=O)N3CCC(N4CCCC4)CC3)cc2)cc1OCc1cccc(CO)n1`, for which the inhibition at 1 pM turned out to be 15%. For the compound `Nc1ncc(-c2ccc(C(=O)N3CCC(N4CCCC4)CC3)cc2)cc1OCc1cccc(-c2ccnc(Br)n2)c1`, the inhibition at 1 pM came to 13%. The figure for `Nc1ncc(-c2ccc(C(=O)N3CCC(N4CCCC4)CC3)cc2)cc1OCc1ccc(C(F)(F)F)nc1` is 13%. In the case of `Nc1ncc(-c2ccc(C(=O)N3CCC(N4CCCC4)CC3)cc2)cc1OCc1ccc(-c2cnc(Br)nc2)cc1`, the inhibition at 1 pM was 33%. The figure for `Nc1ncc(-c2ccc(C(=O)N3CCC(N4CCCC4)CC3)cc2)cc1OCc1cn2ccccc2n1` is 11%. In the case of `COc1cc(COc2cc(-c3ccc(C(=O)N4CCC(N5CCCC5)CC4)cc3)cnc2N)cc(OC)c1`, the inhibition at 1 pM is 17%. For `CCOC(=O)CCNS(=O)(=O)c1ccc(COc2cc(-c3ccc(C(=O)N4CCC(N5CCCC5)CC4)cc3)cnc2N)cc1` the value was 15%; for `Nc1ncc(-c2ccc(C(=O)N3CCC(N4CCCC4)CC3)cc2)cc1OCc1ccc(C(=O)c2ccccc2)cc1`, 31%; for `COc1cccc(COc2cc(-c3ccc(C(=O)N4CCC(N5CCCC5)CC4)cc3)cnc2N)c1OC`, 23%. For `Cc1cc(-c2onc(C)c2COc2cc(-c3ccc(C(=O)N4CCC(N5CCCC5)CC4)cc3)cnc2N)no1` the value was 22%; for `Cc1nc2ccc(COc3cc(-c4ccc(C(=O)N5CCC(N6CCCC6)CC5)cc4)cnc3N)cc2c(=O)[nH]1`, 12%; for `Nc1ncc(-c2ccc(C(=O)N3CCC(N4CCCC4)CC3)cc2)cc1OCc1ccc(S(=O)(=O)N2CCOCC2)cc1`, 14%.

For the compound `COCOc1ccc(S(=O)(=O)c2ccc(COc3cc(-c4ccc(C(=O)N5CCC(N6CCCC6)CC5)cc4)cnc3N)cc2)cc1`, the inhibition at 1 pM worked out at 18%. The figure for `COc1ccc2sc(COc3cc(-c4ccc(C(=O)N5CCC(N6CCCC6)CC5)cc4)cnc3N)cc2c1` is 13%; for `Nc1ncc(-c2ccc(C(=O)N3CCC(N4CCCC4)CC3)cc2)cc1OCc1ccc(S(=O)(=O)c2ccc(F)cc2)cc1` it is 13%.

Turning to `Cc1nc2scc(COc3cc(-c4ccc(C(=O)N5CCC(N6CCCC6)CC5)cc4)cnc3N)c2c(=O)[nH]1`, the inhibition at 1 pM worked out at 10%.

For `Nc1ncc(-c2ccc(C(=O)N3CCC(N4CCCC4)CC3)cc2)cc1OCc1cncc2ccccc12`, the inhibition at 1 pM is 9%.

For the compound `Cn1c(COc2cc(-c3ccc(C(=O)N4CCC(N5CCCC5)CC4)cc3)cnc2N)nc2ccccc21`, the inhibition at 1 pM came to 10%. With `Nc1ncc(-c2ccc(C(=O)N3CCC(N4CCCC4)CC3)cc2)cc1OCc1nc(-c2ccccn2)no1`, the inhibition at 1 pM came out at 9%. Turning to `Nc1ncc(-c2ccc(C(=O)N3CCC(N4CCCC4)CC3)cc2)cc1OCc1c(F)ccc(F)c1Cl`, the inhibition at 1 pM was determined as 50%.

In the case of `Cc1ccc(COc2cc(-c3ccc(C(=O)N4CCC(N5CCCC5)CC4)cc3)cnc2N)c(F)c1F`, the inhibition at 1 pM came out at 39%. The figure for `Cc1ccc(F)c(COc2cc(-c3ccc(C(=O)N4CCC(N5CCCC5)CC4)cc3)cnc2N)c1F` is 51%; for `Cc1cc(COc2cc(-c3ccc(C(=O)N4CCC(N5CCCC5)CC4)cc3)cnc2N)ccc1F` it is 27%.

As for `Cc1ccc(F)cc1COc1cc(-c2ccc(C(=O)N3CCC(N4CCCC4)CC3)cc2)cnc1N`, the inhibition at 1 pM turned out to be 29%.

Turning to `Nc1ncc(-c2ccc(C(=O)N3CCC(N4CCCC4)CC3)cc2)cc1OCc1cccc(Br)c1`, the inhibition at 1 pM came to 24%. Consider `Nc1ncc(-c2ccc(C(=O)N3CCC(N4CCCC4)CC3)cc2)cc1OCc1nc(N)c2ccccc2n1`, for which the inhibition at 1 pM amounted to 15%.

As for `Nc1ncc(-c2ccc(C(=O)N3CCC(N4CCCC4)CC3)cc2)cc1OCc1cccnc1`, the inhibition at 1 pM is 17%. On to `Nc1ncc(-c2ccc(C(=O)N3CCC(N4CCCC4)CC3)cc2)cc1OCc1ccccn1`, for which the inhibition at 1 pM amounted to 16%. For `COc1c(C)cnc(COc2cc(-c3ccc(C(=O)N4CCC(N5CCCC5)CC4)cc3)cnc2N)c1C` the value was 20%. Take `Cc1onc(-c2ccccc2)c1COc1cc(-c2ccc(C(=O)N3CCC(N4CCCC4)CC3)cc2)cnc1N`: the inhibition at 1 pM came out at 19%. Consider `Nc1ncc(-c2ccc(C(=O)N3CCC(N4CCCC4)CC3)cc2)cc1OCc1cn2cccnc2n1`, for which the inhibition at 1 pM worked out at 16%. For `Cc1cc(C)n2nc(COc3cc(-c4ccc(C(=O)N5CCC(N6CCCC6)CC5)cc4)cnc3N)nc2n1` the value was 18%. For the compound `Nc1ncc(-c2ccc(C(=O)N3CCC(N4CCCC4)CC3)cc2)cc1OCc1cccc2cccnc12`, the inhibition at 1 pM was 22%.

In the case of `Cn1nc(-c2ccccc2)c(COc2cc(-c3ccc(C(=O)N4CCC(N5CCCC5)CC4)cc3)cnc2N)c1Cl`, the inhibition at 1 pM is 63%. The figure for `Nc1ncc(-c2ccc(C(=O)N3CCC(N4CCCC4)CC3)cc2)cc1OCc1nc2ccccc2s1` is 17%.
